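Results reflect a 48-hour exposure of cells in 96-well plates to compound at five concentrations. At the GI50, growth is halved.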 Activity calls are given as the source filed them. Rule as the data show it: active = GI50 up to about 1.1 µM and inactive = higher.
Columns and labels:
Assay in all cases: NCI-60 cell line screen, 48 h
U-251 = system: U-251
MDA-N = system: MDA-N
SF-268 = system: SF-268
SK-OV-3 = system: SK-OV-3
M14 = system: M14
TK-10 = system: TK-10
SNB-75 = system: SNB-75
OVCAR-5 = system: OVCAR-5
OVCAR-3 = system: OVCAR-3
SNB-19 = system: SNB-19
NCI-H23 = system: NCI-H23
A549 = system: A549
HT-29 = system: HT-29
HCT-116 = system: HCT-116
OVCAR-4 = system: OVCAR-4
CCRF-CEM = system: CCRF-CEM
SK-MEL-5 = system: SK-MEL-5
UACC-62 = system: UACC-62
SW-620 = system: SW-620
PC-3 = system: PC-3
HOP-92 = system: HOP-92
SK-MEL-28 = system: SK-MEL-28
MCF7 = system: MCF7
NCI-H522 = system: NCI-H522
SN12C = system: SN12C
K562 = system: K562
786-0 = system: 786-0
EKVX = system: EKVX
MDA-MB-435 = system: MDA-MB-435
HCC 2998 = system: HCC 2998
T47D = system: T47D
NCI-H460 = system: NCI-H460
A498 = system: A498
ACHN = system: ACHN
DU-145 = system: DU-145
COLO 205 = system: COLO 205
BT-549 = system: BT-549
LOX IMVI = system: LOX IMVI
SK-MEL-2 = system: SK-MEL-2
SF-295 = system: SF-295
HL-60 = system: HL-60
RPMI-8226 = system: RPMI-8226
HOP-62 = system: HOP-62
MDA-MB-231 = system: MDA-MB-231
IGROV-1 = system: IGROV-1
CAKI-1 = system: CAKI-1
OVCAR-8 = system: OVCAR-8
MOLT-4 = system: MOLT-4
Malme-3M = system: Malme-3M
UO-31 = system: UO-31
SF-539 = system: SF-539
RXF 393 = system: RXF 393
UACC-257 = system: UACC-257
KM12 = system: KM12
Hs-578T = system: Hs-578T
HCT-15 = system: HCT-15
NCI/ADR-RES = system: NCI/ADR-RES
NCI-H226 = system: NCI-H226

In the case of `Cc1cc(OC2OC(CO)C(O)C(O)C2O)ccc1O` (centres undefined), the GI50 (U-251) is reported as > 100 µM (inactive), the GI50 (MDA-N) is reported as > 100 µM (inactive) and the GI50 (SF-268) is reported as > 100 µM (inactive). For the same compound, the GI50 (SK-OV-3) was > 100 µM (inactive), the GI50 (M14) was > 100 µM (inactive) and the GI50 (TK-10) was > 100 µM (inactive). The GI50 (SNB-75) was > 100 µM (inactive), the GI50 (OVCAR-5) was > 100 µM (inactive) and the GI50 (OVCAR-3) was > 100 µM (inactive). For the same compound, the GI50 (SNB-19) was > 100 µM (inactive), the GI50 (NCI-H23) was > 100 µM (inactive) and the GI50 (A549) was > 100 µM (inactive). The GI50 (HT-29) was > 100 µM (inactive), the GI50 (HCT-116) was > 100 µM (inactive) and the GI50 (OVCAR-4) was > 100 µM (inactive). For the same compound, the GI50 (CCRF-CEM) was > 100 µM (inactive), the GI50 (SK-MEL-5) was > 100 µM (inactive) and the GI50 (UACC-62) was > 100 µM (inactive). For the same compound, the GI50 (SW-620) was > 100 µM (inactive), the GI50 (PC-3) was > 100 µM (inactive) and the GI50 (HOP-92) was > 100 µM (inactive). The GI50 (SK-MEL-28) was > 100 µM (inactive), the GI50 (MCF7) was > 100 µM (inactive) and the GI50 (NCI-H522) was > 100 µM (inactive). The GI50 (SN12C) was > 100 µM (inactive), the GI50 (K562) was > 100 µM (inactive) and the GI50 (786-0) was > 100 µM (inactive). For the same compound, the GI50 (EKVX) was > 100 µM (inactive), the GI50 (MDA-MB-435) was > 100 µM (inactive) and the GI50 (HCC 2998) was > 100 µM (inactive). For the same compound, the GI50 (T47D) was > 100 µM (inactive), the GI50 (NCI-H460) was > 100 µM (inactive) and the GI50 (A498) was > 100 µM (inactive). For the same compound, the GI50 (ACHN) was > 100 µM (inactive), the GI50 (DU-145) was > 10 µM (inactive) and the GI50 (COLO 205) was > 100 µM (inactive). The GI50 (BT-549) was > 100 µM (inactive), the GI50 (LOX IMVI) was > 100 µM (inactive) and the GI50 (SK-MEL-2) was > 100 µM (inactive). For the same compound, the GI50 (SF-295) was > 100 µM (inactive), the GI50 (HL-60) was > 100 µM (inactive) and the GI50 (RPMI-8226) was > 100 µM (inactive). The GI50 (HOP-62) was > 100 µM (inactive), the GI50 (MDA-MB-231) was > 100 µM (inactive) and the GI50 (IGROV-1) was > 100 µM (inactive). For the same compound, the GI50 (CAKI-1) was > 100 µM (inactive), the GI50 (OVCAR-8) was > 100 µM (inactive) and the GI50 (MOLT-4) was > 100 µM (inactive). For the same compound, the GI50 (Malme-3M) was > 100 µM (inactive), the GI50 (UO-31) was > 100 µM (inactive) and the GI50 (SF-539) was > 100 µM (inactive). The GI50 (RXF 393) was > 100 µM (inactive), the GI50 (UACC-257) was > 100 µM (inactive) and the GI50 (KM12) was > 100 µM (inactive). The GI50 (Hs-578T) was > 100 µM (inactive), the GI50 (HCT-15) was greater than 100 µM and the GI50 (NCI/ADR-RES) was > 100 µM (inactive).
`O=C(O)C(Cc1ccccc1)N1C(=O)c2ccccc2C1=O` (centres undefined) was tested, and the GI50 (U-251) was > 100 µM (inactive), the GI50 (MDA-N) was > 100 µM (inactive) and the GI50 (SF-268) was > 100 µM (inactive). The GI50 (SK-OV-3) was > 100 µM (inactive), the GI50 (M14) was > 100 µM (inactive) and the GI50 (TK-10) was > 100 µM (inactive). The GI50 (OVCAR-5) was > 100 µM (inactive), the GI50 (OVCAR-3) was > 100 µM (inactive) and the GI50 (SNB-19) was > 100 µM (inactive). For the same compound, the GI50 (NCI-H23) was > 100 µM (inactive), the GI50 (A549) was > 100 µM (inactive) and the GI50 (HT-29) was > 100 µM (inactive). The GI50 (HCT-116) was > 100 µM (inactive), the GI50 (OVCAR-4) was > 100 µM (inactive) and the GI50 (CCRF-CEM) was 4.01 µM (inactive). The GI50 (SK-MEL-5) was > 100 µM (inactive), the GI50 (UACC-62) was > 100 µM (inactive) and the GI50 (SW-620) was 18.7 µM (inactive). For the same compound, the GI50 (PC-3) was > 100 µM (inactive), the GI50 (HOP-92) was 29.2 µM (inactive) and the GI50 (NCI-H226) was > 100 µM (inactive). For the same compound, the GI50 (SK-MEL-28) was 14.4 µM (inactive), the GI50 (MCF7) was > 100 µM (inactive) and the GI50 (NCI-H522) was > 100 µM (inactive). The GI50 (SN12C) was > 100 µM (inactive), the GI50 (K562) was > 100 µM (inactive) and the GI50 (786-0) was > 100 µM (inactive). The GI50 (EKVX) was 93.1 µM (inactive), the GI50 (MDA-MB-435) was > 100 µM (inactive) and the GI50 (HCC 2998) was > 100 µM (inactive). For the same compound, the GI50 (T47D) was > 100 µM (inactive), the GI50 (NCI-H460) was > 100 µM (inactive) and the GI50 (A498) was > 100 µM (inactive). The GI50 (ACHN) was > 100 µM (inactive), the GI50 (DU-145) was > 100 µM (inactive) and the GI50 (COLO 205) was > 100 µM (inactive). For the same compound, the GI50 (BT-549) was > 100 µM (inactive), the GI50 (LOX IMVI) was > 100 µM (inactive) and the GI50 (SK-MEL-2) was > 100 µM (inactive). The GI50 (SF-295) was > 100 µM (inactive), the GI50 (HL-60) was 0.0472 µM (active) and the GI50 (RPMI-8226) was > 100 µM (inactive). For the same compound, the GI50 (HOP-62) was > 100 µM (inactive), the GI50 (MDA-MB-231) was > 100 µM (inactive) and the GI50 (IGROV-1) was > 100 µM (inactive). For the same compound, the GI50 (CAKI-1) was > 100 µM (inactive), the GI50 (OVCAR-8) was > 100 µM (inactive) and the GI50 (MOLT-4) was > 100 µM (inactive). The GI50 (Malme-3M) was > 100 µM (inactive), the GI50 (UO-31) was > 100 µM (inactive) and the GI50 (SF-539) was > 100 µM (inactive). For the same compound, the GI50 (RXF 393) was > 100 µM (inactive), the GI50 (UACC-257) was > 100 µM (inactive) and the GI50 (KM12) was > 100 µM (inactive). For the same compound, the GI50 (Hs-578T) was > 100 µM (inactive), the GI50 (HCT-15) was greater than 100 µM and the GI50 (NCI/ADR-RES) was > 100 µM (inactive).
